In US9758524B2, “4-imidazopyridazin-1-yl-benzamides as Btk inhibitors” (Merck Sharp & Dohme B.V., priority 2011, dated 2017):
Where two headings read alike, the source gives them in different places.

Experiments:
[1] = biological target: FynT enzyme (Homo sapiens (Human), UniProt P06241); assay: FynT enzyme activity (IMAP fluorescence polarization assay); assay type: biochemical; conditions: 60 min pre-incubation, 0.2 μM ATP
Summary of the method: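 Human FynT pre-incubated with compounds 60 min at room temperature, then reacted 2 h at room temperature with fluorescein-labelled p34cdc2 peptide (100 nM final). Stopped with IMAP binding solution; fluorescence polarization read after 60 min. Activity as % of ±ATP control difference; EC50 by curve fitting.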

[2] = biological target: Btk enzyme (His-Btk) (Homo sapiens (Human), UniProt Q06187); assay: Btk enzyme activity (IMAP fluorescence polarization assay)
Sequence of Btk enzyme (His-Btk) (Q06187 whole entry): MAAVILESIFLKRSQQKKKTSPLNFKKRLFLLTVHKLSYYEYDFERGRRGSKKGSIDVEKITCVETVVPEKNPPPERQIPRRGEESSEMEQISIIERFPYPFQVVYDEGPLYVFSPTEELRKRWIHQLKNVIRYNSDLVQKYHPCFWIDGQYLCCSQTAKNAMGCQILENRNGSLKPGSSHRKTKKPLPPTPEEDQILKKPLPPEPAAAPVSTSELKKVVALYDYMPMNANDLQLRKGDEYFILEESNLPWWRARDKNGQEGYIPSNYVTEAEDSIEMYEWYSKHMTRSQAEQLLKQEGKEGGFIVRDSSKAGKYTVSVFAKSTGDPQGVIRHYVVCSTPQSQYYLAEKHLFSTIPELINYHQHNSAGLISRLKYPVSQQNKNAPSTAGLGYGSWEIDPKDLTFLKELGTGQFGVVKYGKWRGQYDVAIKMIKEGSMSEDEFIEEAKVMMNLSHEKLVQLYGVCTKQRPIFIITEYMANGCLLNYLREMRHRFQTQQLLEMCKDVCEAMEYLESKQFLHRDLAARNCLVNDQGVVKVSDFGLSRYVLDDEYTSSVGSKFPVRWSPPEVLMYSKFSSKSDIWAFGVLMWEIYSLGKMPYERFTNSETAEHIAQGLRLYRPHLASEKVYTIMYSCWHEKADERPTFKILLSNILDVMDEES

[3] = biological target: Lck enzyme (Homo sapiens (Human), UniProt P06239); assay: Lck enzyme activity (IMAP fluorescence polarization assay); conditions: read-out: EC50 Lck activity values; IMAP, 60 min pre-incubation, 6 μM ATP; bin bound in μM
Sequence of Lck enzyme (P06239 whole entry): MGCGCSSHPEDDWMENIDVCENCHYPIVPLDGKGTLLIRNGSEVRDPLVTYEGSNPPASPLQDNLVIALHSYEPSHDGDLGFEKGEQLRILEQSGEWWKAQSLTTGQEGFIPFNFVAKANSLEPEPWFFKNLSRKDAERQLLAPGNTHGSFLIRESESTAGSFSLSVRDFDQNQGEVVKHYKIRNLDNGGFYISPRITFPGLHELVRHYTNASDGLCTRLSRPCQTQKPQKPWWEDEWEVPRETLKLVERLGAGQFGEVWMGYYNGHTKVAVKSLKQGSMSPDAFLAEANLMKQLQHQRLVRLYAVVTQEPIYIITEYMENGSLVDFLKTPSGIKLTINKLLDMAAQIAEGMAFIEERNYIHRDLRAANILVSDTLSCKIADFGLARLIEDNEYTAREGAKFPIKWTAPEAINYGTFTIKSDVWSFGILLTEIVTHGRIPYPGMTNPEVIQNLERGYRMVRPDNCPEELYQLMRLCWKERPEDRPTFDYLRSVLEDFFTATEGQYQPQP

[4] = biological target: Src enzyme (Homo sapiens (Human), UniProt P12931); assay: Src enzyme activity (IMAP fluorescence polarization assay); conditions: read-out: EC50 Src activity values; IMAP, 60 min pre-incubation, 4 μM ATP
Sequence of Src enzyme (P12931 whole entry, looked up): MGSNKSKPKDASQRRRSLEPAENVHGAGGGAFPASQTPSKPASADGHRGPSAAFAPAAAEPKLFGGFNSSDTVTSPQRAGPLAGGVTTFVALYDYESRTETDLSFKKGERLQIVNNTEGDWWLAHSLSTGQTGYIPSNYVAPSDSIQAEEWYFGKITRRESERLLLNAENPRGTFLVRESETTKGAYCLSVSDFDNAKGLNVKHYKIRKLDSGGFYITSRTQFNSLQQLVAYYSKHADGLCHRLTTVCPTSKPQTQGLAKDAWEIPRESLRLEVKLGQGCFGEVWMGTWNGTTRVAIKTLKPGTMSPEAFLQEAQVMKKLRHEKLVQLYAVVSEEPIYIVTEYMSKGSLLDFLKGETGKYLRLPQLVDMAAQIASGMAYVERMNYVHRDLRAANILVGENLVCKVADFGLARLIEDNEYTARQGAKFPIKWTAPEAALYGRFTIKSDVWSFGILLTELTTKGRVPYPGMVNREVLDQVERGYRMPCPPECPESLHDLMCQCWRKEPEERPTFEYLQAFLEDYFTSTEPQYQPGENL

[5] = biological target: Lyn enzyme (Homo sapiens (Human), UniProt P07948); assay: Lyn enzyme activity (IMAP fluorescence polarization assay)
Sequence of Lyn enzyme (P07948 whole entry): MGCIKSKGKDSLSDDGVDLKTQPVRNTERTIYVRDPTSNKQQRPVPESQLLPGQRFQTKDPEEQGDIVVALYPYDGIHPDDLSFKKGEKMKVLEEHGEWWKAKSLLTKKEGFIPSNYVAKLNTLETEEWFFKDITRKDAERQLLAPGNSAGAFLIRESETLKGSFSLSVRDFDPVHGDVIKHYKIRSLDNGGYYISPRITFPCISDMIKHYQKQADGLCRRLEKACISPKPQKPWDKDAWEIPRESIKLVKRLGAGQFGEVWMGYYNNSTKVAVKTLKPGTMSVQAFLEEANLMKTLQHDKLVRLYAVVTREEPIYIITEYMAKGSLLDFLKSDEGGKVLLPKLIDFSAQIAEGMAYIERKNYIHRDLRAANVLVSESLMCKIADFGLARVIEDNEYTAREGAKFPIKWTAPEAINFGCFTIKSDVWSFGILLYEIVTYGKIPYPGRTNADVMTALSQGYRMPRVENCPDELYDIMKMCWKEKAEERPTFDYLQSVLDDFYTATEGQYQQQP

[6] = read-out: EC50 Btk activity values, IMAP, 60 min pre-incubation, 5 μM ATP, bin bound in nM
[7] = read-out: EC50 Lyn activity values, 60 min pre-incubation, 2 μM ATP, bin bound in μM
[8] = IMAP, 60 min pre-incubation, 5 μM ATP, bin bound in nM
[9] = IMAP, 60 min pre-incubation, 5 μM ATP, bin bound in μM

Sequence of FynT enzyme (P06241 other isoform, or with tags, fused parts or gaps): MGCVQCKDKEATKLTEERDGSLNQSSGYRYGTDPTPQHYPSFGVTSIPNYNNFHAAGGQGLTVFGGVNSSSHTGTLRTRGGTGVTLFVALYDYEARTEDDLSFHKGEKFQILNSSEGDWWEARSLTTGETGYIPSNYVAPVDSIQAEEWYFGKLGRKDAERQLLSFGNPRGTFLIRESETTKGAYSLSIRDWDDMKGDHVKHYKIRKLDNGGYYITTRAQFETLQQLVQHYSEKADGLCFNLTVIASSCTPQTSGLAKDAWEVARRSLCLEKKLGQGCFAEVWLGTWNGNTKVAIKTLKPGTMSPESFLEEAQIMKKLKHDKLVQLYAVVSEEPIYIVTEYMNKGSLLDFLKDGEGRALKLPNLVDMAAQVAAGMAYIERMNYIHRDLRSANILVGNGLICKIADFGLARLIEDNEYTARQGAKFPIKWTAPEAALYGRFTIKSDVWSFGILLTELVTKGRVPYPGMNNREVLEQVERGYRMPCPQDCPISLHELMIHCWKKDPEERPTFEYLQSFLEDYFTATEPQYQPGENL

| SMILES | EC50 [1] [µM] | EC50 [2, 6] [nM] | EC50 [3] [µM] | EC50 [4] [µM] | EC50 [5, 7] [µM] | EC50 [2] [nM] | EC50 Btk activity values [2, 8] [nM] | EC50 Btk activity values [2, 9] [nM] | EC50 ([5]; EC50 Lyn activity values, 60 min pre-incubation, 2 μM ATP, bin bound in μM) [µM] | EC50 ([2]; read-out: EC50 Btk activity values, IMAP, 60 min pre-incubation, 5 μM ATP, bin bound in μM) [nM] |
| --- | --- | --- | --- | --- | --- | --- | --- | --- | --- | --- |
| CCCc1ccnc(NC(=O)c2ccc(-c3nc([C@@H]4CCCN4C(=O)/C=C/CN4CCCC4)n4ccnc(N)c34)cc2)c1 [Example 77, (S,E)-4-(8-amino-3-(1-(4-(pyrrolidin-1-yl)but-2-enoyl)pyrrolidin-2-yl)imidazo[1,5-a]pyrazin-1-yl)-N-(4-propylpyridin-2-yl)benzamide] | ≥ 1 | < 10 | ≥ 1 | ≥ 1 | ≥ 1 |  |  |  |  |  |
| CN(C)C/C=C/C(=O)N1CCCC[C@H]1c1nc(-c2ccc(C(=O)Nc3ccccn3)cc2)c2c(N)nccn12 [Example 78, (S,E)-4-(8-amino-3-(1-(4-(dimethylamino)but-2-enoyl)piperidin-2-yl)imidazo[1,5-a]pyrazin-1-yl)-N-(pyridin-2-yl)benzamide] | ≥ 1 | < 10 | ≥ 1 | ≥ 1 | ≥ 1 |  |  |  |  |  |
| CCCc1ccnc(NC(=O)c2ccc(-c3nc([C@@H]4CCCN4C(=O)c4ccnc(Cl)n4)n4ccnc(N)c34)cc2)c1 [Example 79, (S)-4-(8-amino-3-(1-(2-chloropyrimidine-4-carbonyl)pyrrolidin-2-yl)imidazo[1,5-a]pyrazin-1-yl)-N-(4-propylpyridin-2-yl)benzamide] | ≥ 1 | < 10 | ≥ 1 | ≥ 1 | ≥ 1 |  |  |  |  |  |
| Nc1nccn2c([C@@H]3CCCCN3C(=O)c3ccnc(Cl)n3)nc(-c3ccc(C(=O)Nc4cc(F)ccn4)cc3)c12 [Example 80, (S)-4-(8-amino-3-(1-(2-chloropyrimidine-4-carbonyl)piperidin-2-yl)imidazo[1,5-a]pyrazin-1-yl)-N-(4-fluoropyridin-2-yl)benzamide] | ≥ 1 |  | ≥ 1 | ≥ 1 | ≥ 1 | 10 to 100 | <100 |  |  |  |
| COC/C=C/C(=O)N1CCCC[C@H]1c1nc(-c2ccc(C(=O)Nc3cc(F)ccn3)cc2)c2c(N)nccn12 [Example 81, (S,E)-4-(8-amino-3-(1-(4-methoxybut-2-enoyl)piperidin-2-yl)imidazo[1,5-a]pyrazin-1-yl)-N-(4-fluoropyridin-2-yl)benzamide] | ≥ 1 |  | ≥ 1 | ≥ 1 | ≥ 1 | 10 to 100 | <100 |  |  |  |
| COC/C=C/C(=O)N1CCC[C@H]1c1nc(-c2ccc(C(=O)Nc3nc4c(s3)CCCC4)cc2)c2c(N)nccn12 [Example 82, (S,E)-4-(8-amino-3-(1-(4-methoxybut-2-enoyl)pyrrolidin-2-yl)imidazo[1,5-a]pyrazin-1-yl)-N-(4,5,6,7-tetrahydrobenzo[d]thiazol-2-yl)benzamide] | ≥ 1 |  | ≥ 1 | ≥ 1 | ≥ 1 | 10 to 100 | <100 |  |  |  |
| COc1cc(-c2nc([C@@H]3CCCN3C(=O)c3ccnc(Cl)n3)n3ccnc(N)c23)ccc1C(=O)Nc1ccccn1 [Example 83, (S)-4-(8-amino-3-(1-(2-chloropyrimidine-4-carbonyl)pyrrolidin-2-yl)imidazo[1,5-a]pyrazin-1-yl)-2-methoxy-N-(pyridin-2-yl)benzamide] | ≥ 1 |  | ≥ 1 | ≥ 1 | ≥ 1 | 10 to 100 | <100 |  |  |  |
| Nc1nccn2c([C@@H]3CCCN3C(=O)c3ccnc(Cl)n3)nc(-c3ccc(C(=O)Nc4ccccn4)c(F)c3)c12 [Example 84, (S)-4-(8-amino-3-(1-(2-chloropyrimidine-4-carbonyl)pyrrolidin-2-yl)imidazo[1,5-a]pyrazin-1-yl)-2-fluoro-N-(pyridin-2-yl)benzamide] | ≥ 1 |  | ≥ 1 | ≥ 1 | ≥ 1 | 10 to 100 | <100 |  |  |  |
| COC/C=C/C(=O)N1CCCC[C@H]1c1nc(-c2ccc(C(=O)Nc3ccccn3)cc2C)c2c(N)nccn12 [Example 85, 4-(8-amino-3-((S)-1-((E)-4-methoxybut-2-enoyl)piperidin-2-yl)imidazo[1,5-a]pyrazin-1-yl)-3-methyl-N-(pyridin-2-yl)benzamide] | ≥ 1 |  | ≥ 1 | ≥ 1 | ≥ 1 | 100 to 1000 |  | <1000 |  |  |
| COC/C=C/C(=O)N1CCCC[C@H]1c1nc(-c2ccc(C(=O)Nc3ccncn3)cc2)c2c(N)nccn12 [Example 86, (S,E)-4-(8-amino-3-(1-(4-methoxybut-2-enoyl)piperidin-2-yl)imidazo[1,5-a]pyrazin-1-yl)-N-(pyrimidin-4-yl)benzamide] | ≥ 1 |  | ≥ 1 | ≥ 1 | ≥ 1 | 100 to 1000 |  | <1000 |  |  |
| CCCc1ccnc(NC(=O)c2ccc(-c3nc([C@@H]4CCCN4C(=O)/C=C/COC)n4ccnc(N)c34)c(C)c2)c1 [Example 87, 4-(8-amino-3-((S)-1-((E)-4-methoxybut-2-enoyl)pyrrolidin-2-yl)imidazo[1,5-a]pyrazin-1-yl)-3-methyl-N-(4-propylpyridin-2-yl)benzamide] | ≥ 1 |  | ≥ 1 | ≥ 1 | ≥ 1 | 100 to 1000 |  | <1000 |  |  |
| COC/C=C/C(=O)N1CCCC[C@H]1c1nc(-c2ccc(C(=O)Nc3nccc(C)n3)cc2)c2c(N)nccn12 [Example 88, (S,E)-4-(8-amino-3-(1-(4-methoxybut-2-enoyl)piperidin-2-yl)imidazo[1,5-a]pyrazin-1-yl)-N-(4-methylpyrimidin-2-yl)benzamide] | ≥ 1 |  | ≥ 1 | ≥ 1 | ≥ 1 | 100 to 1000 |  | <1000 |  |  |
| CC#CC(=O)N1CCCC[C@H]1c1nc(-c2ccc(C(=O)Nc3nccc(C)n3)cc2)c2c(N)nccn12 [Example 89, (S)-4-(8-amino-3-(1-but-2-ynoylpiperidin-2-yl)imidazo[1,5-a]pyrazin-1-yl)-N-(4-methylpyrimidin-2-yl)benzamide] | ≥ 1 |  | ≥ 1 | ≥ 1 |  | 10 to 100 | <100 |  | ≥ 1 |  |
| Nc1nccn2c([C@@H]3CCCCN3C(=O)c3ccnc(Cl)n3)nc(-c3ccc(C(=O)Nc4ncccn4)cc3)c12 [Example 90, (S)-4-(8-amino-3-(1-(2-chloropyrimidine-4-carbonyl)piperidin-2-yl)imidazo[1,5-a]pyrazin-1-yl)-N-(pyrimidin-2-yl)benzamide] | ≥ 1 |  | ≥ 1 | ≥ 1 | ≥ 1 | 100 to 1000 |  | <1000 |  |  |
| C=C(C)C(=O)N1CCC[C@H]1c1nc(-c2ccc(C(=O)Nc3ccccn3)cc2)c2c(N)nccn12 [Example 91, (S)-4-(8-amino-3-(1-methacryloylpyrrolidin-2-yl)imidazo[1,5-a]pyrazin-1-yl)-N-(pyridin-2-yl)benzamide] | ≥ 1 |  | ≥ 1 | ≥ 1 | ≥ 1 |  |  |  |  | ≥ 1000 |
